From PubChem BioAssay (NCI)
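Here, GI50 denotes the concentration required for 50% inhibition of growth. TGI marks complete inhibition of growth.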

Key:
Assay in all cases: NCI tumour cell line growth inhibition, 384-well format
K-562 leukemia = test system: K-562 leukemia
SR leukemia = test system: SR leukemia
SK-MEL-2 melanoma = test system: SK-MEL-2 melanoma
OVCAR-8 ovarian = test system: OVCAR-8 ovarian
UACC-257 melanoma = test system: UACC-257 melanoma
KM12 colon = test system: KM12 colon
HOP-92 NSCLC = test system: HOP-92 NSCLC
ACHN renal = test system: ACHN renal
786-0 renal = test system: 786-0 renal
SK-OV-3 ovarian = test system: SK-OV-3 ovarian
CAKI-1 renal = test system: CAKI-1 renal
MDA-MB-435 melanoma = test system: MDA-MB-435 melanoma
MDA-MB-468 breast = test system: MDA-MB-468 breast
SW-620 colon = test system: SW-620 colon
PC-3 prostate = test system: PC-3 prostate
HOP-62 NSCLC = test system: HOP-62 NSCLC
U251 glioblastoma = test system: U251 glioblastoma
HT29 colon = test system: HT29 colon
M14 melanoma = test system: M14 melanoma
EKVX NSCLC = test system: EKVX NSCLC
A498 renal = test system: A498 renal
A549 NSCLC = test system: A549 NSCLC
HCT-15 colon = test system: HCT-15 colon
COLO 205 colon = test system: COLO 205 colon
DU-145 prostate = test system: DU-145 prostate
SF-295 CNS = test system: SF-295 CNS
UACC-62 melanoma = test system: UACC-62 melanoma
BT-549 breast = test system: BT-549 breast
MCF7 breast = test system: MCF7 breast
UO-31 renal = test system: UO-31 renal
SNB-19 CNS = test system: SNB-19 CNS
SK-MEL-5 melanoma = test system: SK-MEL-5 melanoma
SK-MEL-28 melanoma = test system: SK-MEL-28 melanoma
OVCAR-5 ovarian = test system: OVCAR-5 ovarian
T-47D breast = test system: T-47D breast
SF-539 CNS = test system: SF-539 CNS
MOLT-4 leukemia = test system: MOLT-4 leukemia
MDA-MB-231 breast = test system: MDA-MB-231 breast
OVCAR-3 ovarian = test system: OVCAR-3 ovarian
HL-60(TB) leukemia = test system: HL-60(TB) leukemia
SNB-75 CNS = test system: SNB-75 CNS
NCI-H322M lung = test system: NCI-H322M lung
HS 578T breast = test system: HS 578T breast
IGROV1 ovarian = test system: IGROV1 ovarian
OVCAR-4 ovarian = test system: OVCAR-4 ovarian
SN12C renal = test system: SN12C renal
NCI-H23 lung = test system: NCI-H23 lung
TK-10 renal = test system: TK-10 renal
SF-268 CNS = test system: SF-268 CNS
NCI-H226 lung = test system: NCI-H226 lung
HCT-116 colon = test system: HCT-116 colon
NCI-H522 lung = test system: NCI-H522 lung
MALME-3M melanoma = test system: MALME-3M melanoma

Question: With `CNC(=O)c1cc2c(Oc3ccc(NC(=O)C4(C(=O)Nc5ccc(F)cc5)CC4)cc3)ccnc2cc1OC` as the compound, how does the GI50 (K-562 leukemia) read?
Answer: 261 nM

Question: And the TGI (K-562 leukemia)?
Answer: 1290 nM

Question: And the GI50 (SR leukemia)?
Answer: 1640 nM

Question: And the TGI (SR leukemia)?
Answer: 3.08 µM

Question: What about the GI50 (SK-MEL-2 melanoma) of the same compound?
Answer: 2190 nM

Question: What about the TGI (SK-MEL-2 melanoma) of the same compound?
Answer: 5.67 µM

Question: What about the GI50 (OVCAR-8 ovarian) of the same compound?
Answer: 3.59 µM

Question: What about the TGI (OVCAR-8 ovarian) of the same compound?
Answer: > 100 µM

Question: What about the GI50 (UACC-257 melanoma) of the same compound?
Answer: 2350 nM

Question: What about the TGI (UACC-257 melanoma) of the same compound?
Answer: 20.5 µM

Question: And the GI50 (KM12 colon)?
Answer: 4.09 µM

Question: What about the TGI (KM12 colon) of the same compound?
Answer: 74.6 µM

Question: And the GI50 (HOP-92 NSCLC)?
Answer: 1370 nM

Question: What about the TGI (HOP-92 NSCLC) of the same compound?
Answer: 5.99 µM

Question: What about the GI50 (ACHN renal) of the same compound?
Answer: 1670 nM

Question: And the TGI (ACHN renal)?
Answer: 5.7 µM

Question: And the GI50 ([…]-0 renal)?
Answer: 3.09 µM

Question: And the TGI (786-0 renal)?
Answer: 12.5 µM

Question: And the GI50 (SK-OV-3 ovarian)?
Answer: 1830 nM

Question: What about the TGI (SK-OV-3 ovarian) of the same compound?
Answer: 5.63 µM

Question: What about the GI50 (CAKI-1 renal) of the same compound?
Answer: 1610 nM

Question: What about the TGI (CAKI-1 renal) of the same compound?
Answer: 3.42 µM

Question: And the GI50 (MDA-MB-435 melanoma)?
Answer: 1630 nM

Question: And the TGI (MDA-MB-435 melanoma)?
Answer: 3.47 µM

Question: And the GI50 (MDA-MB-468 breast)?
Answer: 1570 nM

Question: What about the TGI (MDA-MB-468 breast) of the same compound?
Answer: 4.59 µM

Question: What about the GI50 (SW-620 colon) of the same compound?
Answer: 2720 nM

Question: And the TGI (SW-620 colon)?
Answer: 10.4 µM

Question: And the GI50 (PC-3 prostate)?
Answer: 3.94 µM

Question: And the TGI (PC-3 prostate)?
Answer: > 100 µM

Question: What about the GI50 (HOP-62 NSCLC) of the same compound?
Answer: 3.47 µM

Question: And the TGI (HOP-62 NSCLC)?
Answer: 24.3 µM

Question: And the GI50 (U251 glioblastoma)?
Answer: 4.56 µM

Question: What about the TGI (U251 glioblastoma) of the same compound?
Answer: > 100 µM

Question: And the GI50 (HT29 colon)?
Answer: 2960 nM

Question: What about the TGI (HT29 colon) of the same compound?
Answer: 13.3 µM

Question: And the GI50 (M14 melanoma)?
Answer: 3.36 µM

Question: And the TGI (M14 melanoma)?
Answer: 31.5 µM

Question: And the GI50 (EKVX NSCLC)?
Answer: 1680 nM

Question: What about the TGI (EKVX NSCLC) of the same compound?
Answer: 5.23 µM

Question: And the GI50 (A498 renal)?
Answer: 2870 nM

Question: And the TGI (A498 renal)?
Answer: 9.79 µM

Question: What about the GI50 (A549 NSCLC) of the same compound?
Answer: 3.1 µM

Question: What about the TGI (A549 NSCLC) of the same compound?
Answer: 11.2 µM

Question: What about the GI50 (HCT-15 colon) of the same compound?
Answer: 2960 nM

Question: What about the TGI (HCT-15 colon) of the same compound?
Answer: 12.3 µM

Question: And the GI50 (COLO 205 colon)?
Answer: 3.38 µM

Question: And the TGI (COLO 205 colon)?
Answer: 14.4 µM

Question: What about the GI50 (DU-145 prostate) of the same compound?
Answer: 4.12 µM

Question: What about the TGI (DU-145 prostate) of the same compound?
Answer: > 100 µM

Question: What about the GI50 (SF-295 CNS) of the same compound?
Answer: 471 nM

Question: And the TGI (SF-295 CNS)?
Answer: 8.18 µM

Question: What about the GI50 (UACC-62 melanoma) of the same compound?
Answer: 1860 nM

Question: And the TGI (UACC-62 melanoma)?
Answer: 5.52 µM

Question: What about the GI50 (BT-549 breast) of the same compound?
Answer: 2490 nM

Question: What about the TGI (BT-549 breast) of the same compound?
Answer: 6.88 µM

Question: And the GI50 (MCF7 breast)?
Answer: 1720 nM

Question: And the TGI (MCF7 breast)?
Answer: 10.4 µM

Question: What about the GI50 (UO-31 renal) of the same compound?
Answer: 1990 nM

Question: What about the TGI (UO-31 renal) of the same compound?
Answer: 4.9 µM

Question: And the GI50 (SNB-19 CNS)?
Answer: 16.2 µM

Question: What about the TGI (SNB-19 CNS) of the same compound?
Answer: > 100 µM

Question: What about the GI50 (SK-MEL-5 melanoma) of the same compound?
Answer: 1430 nM

Question: What about the TGI (SK-MEL-5 melanoma) of the same compound?
Answer: 4.45 µM

Question: What about the GI50 (SK-MEL-28 melanoma) of the same compound?
Answer: 2900 nM

Question: And the TGI (SK-MEL-28 melanoma)?
Answer: > 100 µM

Question: What about the GI50 (OVCAR-5 ovarian) of the same compound?
Answer: 3.35 µM

Question: What about the TGI (OVCAR-5 ovarian) of the same compound?
Answer: > 100 µM

Question: What about the GI50 (T-47D breast) of the same compound?
Answer: 1810 nM

Question: And the TGI (T-47D breast)?
Answer: 9.37 µM

Question: What about the GI50 (SF-539 CNS) of the same compound?
Answer: 180 nM

Question: And the TGI (SF-539 CNS)?
Answer: 3.23 µM

Question: What about the GI50 (MOLT-4 leukemia) of the same compound?
Answer: 1400 nM

Question: And the TGI (MOLT-4 leukemia)?
Answer: 2720 nM

Question: And the GI50 (MDA-MB-231 breast)?
Answer: 3.33 µM

Question: And the TGI (MDA-MB-231 breast)?
Answer: > 100 µM

Question: What about the GI50 (OVCAR-3 ovarian) of the same compound?
Answer: 2560 nM

Question: And the TGI (OVCAR-3 ovarian)?
Answer: 12.4 µM

Question: And the GI50 (HL-60(TB) leukemia)?
Answer: 2130 nM

Question: What about the TGI (HL-60(TB) leukemia) of the same compound?
Answer: 4.05 µM

Question: What about the GI50 (SNB-75 CNS) of the same compound?
Answer: 1080 nM

Question: What about the TGI (SNB-75 CNS) of the same compound?
Answer: 3.01 µM

Question: What about the GI50 (NCI-H322M lung) of the same compound?
Answer: 2640 nM

Question: And the TGI (NCI-H322M lung)?
Answer: 8.79 µM

Question: And the GI50 (HS 578T breast)?
Answer: 601 nM

Question: What about the TGI (HS 578T breast) of the same compound?
Answer: 2730 nM

Question: What about the GI50 (IGROV1 ovarian) of the same compound?
Answer: 1480 nM

Question: And the TGI (IGROV1 ovarian)?
Answer: 3.41 µM

Question: What about the GI50 (OVCAR-4 ovarian) of the same compound?
Answer: 3.87 µM

Question: What about the TGI (OVCAR-4 ovarian) of the same compound?
Answer: > 100 µM

Question: And the GI50 (SN12C renal)?
Answer: 507 nM

Question: And the TGI (SN12C renal)?
Answer: 8.21 µM

Question: And the GI50 (NCI-H23 lung)?
Answer: 546 nM

Question: And the TGI (NCI-H23 lung)?
Answer: 4.73 µM

Question: And the GI50 (TK-10 renal)?
Answer: 2850 nM

Question: And the TGI (TK-10 renal)?
Answer: 14.1 µM

Question: And the GI50 (SF-268 CNS)?
Answer: 3.72 µM

Question: And the TGI (SF-268 CNS)?
Answer: > 100 µM

Question: And the GI50 (NCI-H226 lung)?
Answer: 1630 nM

Question: What about the TGI (NCI-H226 lung) of the same compound?
Answer: 6.07 µM

Question: And the GI50 (HCT-116 colon)?
Answer: 3.17 µM

Question: What about the TGI (HCT-116 colon) of the same compound?
Answer: 19.9 µM

Question: And the GI50 (NCI-H522 lung)?
Answer: 1960 nM

Question: What about the TGI (NCI-H522 lung) of the same compound?
Answer: 5.53 µM

Question: And the GI50 (MALME-3M melanoma)?
Answer: 3.5 µM

Question: What about the TGI (MALME-3M melanoma) of the same compound?
Answer: 17.1 µM
